# Test results as given in article PMC11610137, “TRIM4 enhances small-molecule-induced neddylated-degradation of CORO1A for triple negative breast cancer therapy” (Theranostics, 2024).
# Biological target: T1, Coronin 1A (CORO1A) (Homo sapiens, UniProt P31146)
# T1 construct: EGFP-tagged CORO1A overexpressed in HEK 293T cells (lysate)
# Assay: MST with EGFP-CORO1A cell lysate; supported by CETSA and DARTS in MDA-MB-231 cells
# Type: binding
# T1 sequence (P31146 2-461): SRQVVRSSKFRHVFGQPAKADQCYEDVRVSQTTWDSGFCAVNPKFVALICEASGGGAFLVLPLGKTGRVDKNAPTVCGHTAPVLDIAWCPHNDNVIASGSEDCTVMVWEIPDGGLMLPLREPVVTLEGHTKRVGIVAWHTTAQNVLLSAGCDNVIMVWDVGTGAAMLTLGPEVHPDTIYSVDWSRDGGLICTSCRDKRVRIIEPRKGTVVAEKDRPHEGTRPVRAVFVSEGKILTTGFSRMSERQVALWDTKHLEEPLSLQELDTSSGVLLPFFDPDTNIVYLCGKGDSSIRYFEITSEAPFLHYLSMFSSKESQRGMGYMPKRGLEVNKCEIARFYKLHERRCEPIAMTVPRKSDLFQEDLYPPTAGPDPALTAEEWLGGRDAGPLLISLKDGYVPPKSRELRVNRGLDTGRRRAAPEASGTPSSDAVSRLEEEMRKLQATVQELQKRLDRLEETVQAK
substance,measurement,value
Aurovertin B [AB],Kd,352 nM
